In paper PMC10788941, “Solubilizer Tag Effect on PD-L1/Inhibitor Binding Properties for m-Terphenyl Derivatives” (ACS Medicinal Chemistry Letters, 2023):

Legend:
[1] = biological target: T1, PD-1/PD-L1 complex (hPD-1, hPD-L1) (Homo sapiens, UniProt Q9NZQ7); test: HTRF assay of PD-1/PD-L1 complex disruption (Cis-Bio kit); type: binding; settings: disruption of PD-1/PD-L1 complex, n = 2
T1 construct: purchased Cis-Bio
Text: 4.3. Homogenous Time-Resolved Fluorescence
HTRF (Homogeneous Time Resolved Fluorescence) is a widely used technology for homogenous analyte measurement, particularly in high-throughput screening for drug target studies.
This technology combines fluorescence resonance energy transfer (FRET) with tim e-resolved measurement. In TR-FRET assays, a signal is generated when a donor and an acceptor molecule are in proximity (so-called FRET distance), transfer energy through FRET. Both fluorophores are attached to the monoclonal antibodies that are then specifically detecting particular tags on target proteins.
The commercially available Cis-Bio assay kit was used to perform the HTRF assay. Following the standard protocol, the measurement was carried out at a 20 µL final volume with a 5 nM concentration of hPD-1 and 50 nM concentration of hPD-L1 in the final formulation. Separate dilution […]
compounds. Analyte and detection reagents (anti-analyte conjugated donor and acceptor conjugated […]
plate was left for 1 h of incubation and it was read on an HTRF certified microplate reader Tecan Spark
20M. Output data were subjected to background subtraction on negative control (no PD-1), and normalization in correlation to the positive control (no inhibitor) and averaged. Resulting data points were then fitted with Hill’s equation to generate IC50 using Mathematica 12. […]

[2] = biological target: T2, PD-1/PD-L1 immune checkpoint (Homo sapiens, UniProt Q9NZQ7); test: cell-based PD-1/PD-L1 immune checkpoint blockade (ICB) assay, Jurkat-ECs with CHO/TCRAct/PD-L1 cells, luciferase readout; settings: for activation of Jurkat-ECs (fold induction): relative to DMSO-treated cells; for dose-dependent activation of Jurkat-ECs and toxicity: different concentrations, Figure S1
T2 construct: host or cells: CHO/TCRAct/PD-L1 cells (PD-L1); Jurkat-ECs (PD-1)
T2 sequence (Q9NZQ7 19-290): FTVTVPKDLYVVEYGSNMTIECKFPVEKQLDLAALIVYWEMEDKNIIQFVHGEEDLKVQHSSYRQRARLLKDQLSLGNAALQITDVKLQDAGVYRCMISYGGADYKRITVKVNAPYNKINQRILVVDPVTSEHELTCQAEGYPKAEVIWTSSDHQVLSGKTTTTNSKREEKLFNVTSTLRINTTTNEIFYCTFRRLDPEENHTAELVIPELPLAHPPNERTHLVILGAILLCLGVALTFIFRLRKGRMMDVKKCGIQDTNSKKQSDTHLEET
Procedure: 4.4. PD-1/PD-L1 immune checkpoint blockade (ICB) assay
For the in vitro analysis of the bioactivity of the molecules an Immune Checkpoint Blockade assay was performed 4 CHO/TCRAct/PD -L1 cells (Promega), overexpressing an artificial TCR - activator construct and PD -L1, were seeded on 96 -well white plates at the density of 10 000 cells/well.
The next day, the cells were overlaid with the effector Jurkat T cells (Jurkat -ECs, Promega, 20 000 cells/well), overexpressing PD -1 and containing construct assuring an NFAT -induced expression of luciferase, either in the presence of the indicated concentrations of the compounds with DMSO -only as a control (the concentration of DMSO was kept constant at 0.1%) or durvalumab (Selleckchem), as a positive control, with untreated cells as controls. Activation of the Jurkat -ECs, reflected by luciferase activity, was monitored by luminescence measurements after 6 h of incubation (37°C, 5%CO 2), and […]
20 min of additional incubation with the Bio-GloTM Assay reagent (Promega) at room temperature.
The luminescence was read on the Spark microplate reader (Tecan). The data is presented as fold induction of the luminescence signal relative to either untreated (for durvalumab) or DMSO-treated (for compounds) cells. Data points represent mean ± SD values from duplicates. […]
HCl, 0.25 mM oxidized glutathione, and 0.25 mM reduced glutathione. After the refolding step, the protein was dialyzed 3 times against buffer containing 10 mM Tris-HCl pH 8.0 and 20 mM NaCl. The final step of purification consisted of size exclusion chromatography using a Superdex 75 column and 10 mM Tris- HCl, 20 mM NaCl based buffer for crystallization or PBS buffer for NMR based experiments. The correctly folded state and purity of the PD-L1 protein were checked by NMR and […]
The freshly purified protein was concentrated to 5 mg/mL and then mixed in a 1:3 molar ratio with an excess of the 2f inhibitor, finally the solution was centrifuged for 1 minute at max speed. The clarified solution was then used for screening using multiple available commercial screens. The diffraction quality crystals were obtained from a sitting drop set up at room temperature with a buffer containing 27 % w/v PEG 3350, 0.1 M Bis-Tris propane, pH 7.0 and 0.2 M Lithium sulfate. Crystals were cryo-protected using glycerol and flash frozen with liquid nitrogen.
The X-ray diffraction data were collected at the BL13 - XALOC beamline at ALBA (Barcelona, Spain).6The data were indexed, integrated, and scaled using XDS, SCALE, and Aimless.
7–9 The initial phase estimates was obtained by molecular replacement calculated in Phaser using PDB:5C3T as a model.10 The refinement was performed using CCP4cloud11 and verified using Coot .12–14 The structure was deposited in the Protein Data Bank with accession number 8R6Q. The protein-ligand interactions were assessed using PLIP server15 and visualized using PyMol (The PyMOL Molecular Graphics System, Version 2.0 Schrödinger, LLC).
4.6. Crystal structure determination for compound 2a
X-ray diffraction data for single crystals of compound 2a was collected using XtalLAB Synergy-S four-circle diffractometer with a mirror monochromator and a microfocus CuKα radiation source (λ = 1.5418 Å). The CryoStream cryostat system was used to allow low-temperature

T1 sequence (Q9NZQ7 19-238 limits assumed, one chain of several): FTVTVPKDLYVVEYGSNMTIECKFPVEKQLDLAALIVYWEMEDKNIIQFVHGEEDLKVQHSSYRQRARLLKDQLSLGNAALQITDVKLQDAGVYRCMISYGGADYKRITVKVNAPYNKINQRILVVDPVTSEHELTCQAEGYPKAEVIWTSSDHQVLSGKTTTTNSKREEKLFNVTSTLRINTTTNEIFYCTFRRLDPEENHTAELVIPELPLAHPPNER

| Structure (SMILES) | IC50 [1] | also measured |
| --- | --- | --- |
| COc1cc(-c2cccc(-c3ccc4c(c3)OCCO4)c2Cl)ccc1CN1CCCC1C(=O)O (centres unmarked) [1a] | < 0.5 nM |  |
| COc1cc(-c2cccc(-c3ccc4c(c3)OCCO4)c2Cl)ccc1CN1CCCC1C(=O)NO (centres unmarked) [1b] | > 1000 nM |  |
| COc1cc(-c2cccc(-c3ccc4c(c3)OCCO4)c2Cl)ccc1CN1CCCC1C(=O)NN (centres unmarked) [1c] | 76.2 ± 2.35 nM |  |
| COc1cc(-c2cccc(-c3ccc4c(c3)OCCO4)c2Cl)ccc1CN1CCCC1C(=O)NN(C)C (centres unmarked) [1d] | < 0.5 nM |  |
| COc1cc(-c2cccc(-c3ccc4c(c3)OCCO4)c2Cl)ccc1CN1CCCC1C(=O)NCCN (centres unmarked) [1e] | < 0.5 nM |  |
| COc1cc(-c2cccc(-c3ccc4c(c3)OCCO4)c2Cl)ccc1CN1CCCC1C(=O)NCCO (centres unmarked) [1f] | < 0.5 nM |  |
| COc1cc(-c2cccc(-c3ccc4c(c3)OCCO4)c2Cl)ccc1CN1CCCC1C(=O)NC(CO)CO (centres unmarked) [1g] | < 0.5 nM |  |
| COc1cc(-c2cccc(-c3ccc4c(c3)OCCO4)c2Cl)ccc1CN1CCCC1C(=O)NC(CO)(CO)CO (centres unmarked) [1h] | < 0.5 nM |  |
| COc1cc(-c2cccc(-c3ccc4c(c3)OCCO4)c2Cl)ccc1CN1CCC(C(=O)O)C1 (centres unmarked) [2a] | 1.1 ± 0.07 nM |  |
| COc1cc(-c2cccc(-c3ccc4c(c3)OCCO4)c2Cl)ccc1CN1CCC(C(=O)NO)C1 (centres unmarked) [2b] | 0.94 ± 0.01 nM | activation of Jurkat-ECs (fold induction) ([2]; compound 1 μM): bioactivity was observed |
| COc1cc(-c2cccc(-c3ccc4c(c3)OCCO4)c2Cl)ccc1CN1CCC(C(=O)NN)C1 (centres unmarked) [2c] | < 0.5 nM |  |
| COc1cc(-c2cccc(-c3ccc4c(c3)OCCO4)c2Cl)ccc1CN1CCC(C(=O)NN(C)C)C1 (centres unmarked) [2d] | 12 ± 2.01 nM | activation of Jurkat-ECs (fold induction) ([2]; compound 6.4 μM): activity was retained; dose-dependent activation of Jurkat-ECs and toxicity [2]: highest dose-dependent activity and lowest toxicity |
| COc1cc(-c2cccc(-c3ccc4c(c3)OCCO4)c2Cl)ccc1CN1CCC(C(=O)NCCN)C1 (centres unmarked) [2e] | 4.94 ± 0.37 nM | activation of Jurkat-ECs (fold induction) ([2]; compound 1 μM): bioactivity was observed; activation of Jurkat-ECs (fold induction) ([2]; compound 6.4 μM, 6.4 µM): T cell activation dropped down and tox. |
| COc1cc(-c2cccc(-c3ccc4c(c3)OCCO4)c2Cl)ccc1CN1CCC(C(=O)NCCO)C1 (centres unmarked) [2f] | < 0.5 nM | dose-dependent activation of Jurkat-ECs and toxicity [2]: highest dose-dependent activity and lowest toxicity |
| COc1cc(-c2cccc(-c3ccc4c(c3)OCCO4)c2Cl)ccc1CN1CCC(C(=O)NC(CO)CO)C1 (centres unmarked) [2g] | < 0.5 nM | activation of Jurkat-ECs (fold induction) ([2]; compound 1 μM): bioactivity was observed; activation of Jurkat-ECs (fold induction) ([2]; compound 6.4 μM): activity was retained; dose-dependent activation of Jurkat-ECs and toxicity [2]: highest dose-dependent activity and lowest toxicity |
| COc1cc(-c2cccc(-c3ccc4c(c3)OCCO4)c2Cl)ccc1CN1CCC(C(=O)NC(CO)(CO)CO)C1 (centres unmarked) [2h] | < 0.5 nM | activation of Jurkat-ECs (fold induction) ([2]; compound 1 μM): bioactivity was observed; activation of Jurkat-ECs (fold induction) ([2]; compound 6.4 μM): T cell activation dropped down |
| COc1cc(-c2cccc(-c3ccc4c(c3)OCCO4)c2Cl)ccc1CN1CCCCC1C(=O)O (centres unmarked) [3a] | 0.58 ± 0.05 nM |  |
| COc1cc(-c2cccc(-c3ccc4c(c3)OCCO4)c2Cl)ccc1CN1CCCC(C(=O)O)C1 (centres unmarked) [4a] | < 0.5 nM |  |

Now from value to molecule, other results behind:

| IC50 [1] | Structure (SMILES) | also measured |
| --- | --- | --- |
| 16.7 ± 1.63 nM | COc1cc(-c2cccc(-c3ccc4c(c3)OCCO4)c2Cl)ccc1CN1CCCCC1C(=O)NN (centres unmarked) [3c] |  |
| 56 ± 1.33 nM | COc1cc(-c2cccc(-c3ccc4c(c3)OCCO4)c2Cl)ccc1CN1CCCCC1C(=O)NN(C)C (centres unmarked) [3d] |  |
| 0.9 ± 0.05 nM | COc1cc(-c2cccc(-c3ccc4c(c3)OCCO4)c2Cl)ccc1CN1CCCCC1C(=O)NCCO (centres unmarked) [3f] |  |
| 63.6 ± 1.86 nM | COc1cc(-c2cccc(-c3ccc4c(c3)OCCO4)c2Cl)ccc1CN1CCCCC1C(=O)NC(CO)CO (centres unmarked) [3g] |  |
| 477 ± 83.5 nM | COc1cc(-c2cccc(-c3ccc4c(c3)OCCO4)c2Cl)ccc1CN1CCCCC1C(=O)NC(CO)(CO)CO (centres unmarked) [3h] |  |
| 1.09 ± 0.07 nM | COc1cc(-c2cccc(-c3ccc4c(c3)OCCO4)c2Cl)ccc1CN1CCCC(C(=O)NO)C1 (centres unmarked) [4b] |  |
| 79.9 ± 5.7 nM | COc1cc(-c2cccc(-c3ccc4c(c3)OCCO4)c2Cl)ccc1CN1CCCC(C(=O)NN)C1 (centres unmarked) [4c] |  |
| 37 ± 1.75 nM | COc1cc(-c2cccc(-c3ccc4c(c3)OCCO4)c2Cl)ccc1CN1CCCC(C(=O)NN(C)C)C1 (centres unmarked) [4d] |  |
| < 0.5 nM | COc1cc(-c2cccc(-c3ccc4c(c3)OCCO4)c2Cl)ccc1CN1CCCC(C(=O)NCCO)C1 (centres unmarked) [4f] |  |
| 19.3 ± 1.22 nM | COc1cc(-c2cccc(-c3ccc4c(c3)OCCO4)c2Cl)ccc1CN1CCCC(C(=O)NC(CO)(CO)CO)C1 (centres unmarked) [4h] |  |
| < 0.5 nM | COc1cc(-c2cccc(-c3ccc4c(c3)OCCO4)c2Cl)ccc1CN1CCC(C(=O)O)CC1 [5a] |  |
| 766 ± 71.5 nM | COc1cc(-c2cccc(-c3ccc4c(c3)OCCO4)c2Cl)ccc1CN1CCC(C(=O)NO)CC1 [5b] |  |
| 96.5 ± 2.71 nM | COc1cc(-c2cccc(-c3ccc4c(c3)OCCO4)c2Cl)ccc1CN1CCC(C(=O)NN)CC1 [5c] |  |
| < 0.5 nM | COc1cc(-c2cccc(-c3ccc4c(c3)OCCO4)c2Cl)ccc1CN1CCC(C(=O)NN(C)C)CC1 [5d] |  |
| < 0.5 nM | COc1cc(-c2cccc(-c3ccc4c(c3)OCCO4)c2Cl)ccc1CN1CCC(C(=O)NCCN)CC1 [5e] |  |
| 0.55 ± 0.03 nM | COc1cc(-c2cccc(-c3ccc4c(c3)OCCO4)c2Cl)ccc1CN1CCC(C(=O)NCCO)CC1 [5f] |  |
| < 0.5 nM | COc1cc(-c2cccc(-c3ccc4c(c3)OCCO4)c2Cl)ccc1CN1CCC(C(=O)NC(CO)CO)CC1 [5g] |  |
| < 0.5 nM | COc1cc(-c2cccc(-c3ccc4c(c3)OCCO4)c2Cl)ccc1CN1CCC(C(=O)NC(CO)(CO)CO)CC1 [5h] |  |
